Assay [1] concerns the target SRSF protein kinase 3 (Homo sapiens) (UniProt Q9UPE1). Nature of the assay: Selectivity interaction (KinomeScan (DiscoverX)) EUB0001049a SRPK3. To be noted: at 1 µM.
For assay [2], the target named is T1, Mitogen-activated protein kinase kinase kinase 5 (Homo sapiens) (UniProt Q99683).
T1 sequence (whole entry): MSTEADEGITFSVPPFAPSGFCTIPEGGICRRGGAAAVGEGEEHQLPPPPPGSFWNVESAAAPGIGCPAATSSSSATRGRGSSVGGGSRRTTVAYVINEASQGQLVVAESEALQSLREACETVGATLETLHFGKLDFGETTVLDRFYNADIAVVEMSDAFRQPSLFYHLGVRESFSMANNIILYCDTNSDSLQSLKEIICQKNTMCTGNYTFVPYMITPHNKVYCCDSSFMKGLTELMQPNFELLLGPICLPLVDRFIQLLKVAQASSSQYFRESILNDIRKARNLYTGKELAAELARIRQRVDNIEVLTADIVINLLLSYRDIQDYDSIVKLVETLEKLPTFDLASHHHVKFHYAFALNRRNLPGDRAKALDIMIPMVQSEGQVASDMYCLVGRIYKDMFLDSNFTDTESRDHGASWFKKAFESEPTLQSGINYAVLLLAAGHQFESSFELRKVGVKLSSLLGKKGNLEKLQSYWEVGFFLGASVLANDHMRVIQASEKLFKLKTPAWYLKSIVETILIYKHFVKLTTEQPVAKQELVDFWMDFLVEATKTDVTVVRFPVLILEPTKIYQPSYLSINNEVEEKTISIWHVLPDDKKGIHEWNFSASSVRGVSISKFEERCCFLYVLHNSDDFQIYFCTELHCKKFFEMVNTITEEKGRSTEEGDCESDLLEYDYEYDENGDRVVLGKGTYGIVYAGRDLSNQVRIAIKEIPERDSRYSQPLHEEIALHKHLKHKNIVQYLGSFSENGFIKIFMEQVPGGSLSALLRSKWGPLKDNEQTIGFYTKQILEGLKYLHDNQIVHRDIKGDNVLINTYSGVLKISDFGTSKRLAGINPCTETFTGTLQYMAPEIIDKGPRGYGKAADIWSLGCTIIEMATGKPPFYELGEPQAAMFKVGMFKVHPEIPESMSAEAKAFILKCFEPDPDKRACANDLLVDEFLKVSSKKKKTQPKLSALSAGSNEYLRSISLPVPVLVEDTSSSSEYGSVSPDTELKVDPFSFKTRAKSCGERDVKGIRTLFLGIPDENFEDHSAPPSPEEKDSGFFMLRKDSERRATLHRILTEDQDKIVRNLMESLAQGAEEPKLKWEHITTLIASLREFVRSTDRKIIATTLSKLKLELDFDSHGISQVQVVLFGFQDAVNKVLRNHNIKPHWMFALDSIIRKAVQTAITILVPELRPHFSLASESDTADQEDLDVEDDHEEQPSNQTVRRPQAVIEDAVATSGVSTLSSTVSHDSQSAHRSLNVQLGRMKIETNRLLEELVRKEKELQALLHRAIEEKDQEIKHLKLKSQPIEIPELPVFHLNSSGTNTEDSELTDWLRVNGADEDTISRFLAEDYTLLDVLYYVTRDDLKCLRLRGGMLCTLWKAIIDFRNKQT
Nature of the assay: Selectivity interaction (KinomeScan (DiscoverX)) EUB0000045b MAP3K5.

The target in assay [3] is T2, Ephrin type-B receptor 6 (Homo sapiens) (UniProt O15197).
T2 sequence (whole entry): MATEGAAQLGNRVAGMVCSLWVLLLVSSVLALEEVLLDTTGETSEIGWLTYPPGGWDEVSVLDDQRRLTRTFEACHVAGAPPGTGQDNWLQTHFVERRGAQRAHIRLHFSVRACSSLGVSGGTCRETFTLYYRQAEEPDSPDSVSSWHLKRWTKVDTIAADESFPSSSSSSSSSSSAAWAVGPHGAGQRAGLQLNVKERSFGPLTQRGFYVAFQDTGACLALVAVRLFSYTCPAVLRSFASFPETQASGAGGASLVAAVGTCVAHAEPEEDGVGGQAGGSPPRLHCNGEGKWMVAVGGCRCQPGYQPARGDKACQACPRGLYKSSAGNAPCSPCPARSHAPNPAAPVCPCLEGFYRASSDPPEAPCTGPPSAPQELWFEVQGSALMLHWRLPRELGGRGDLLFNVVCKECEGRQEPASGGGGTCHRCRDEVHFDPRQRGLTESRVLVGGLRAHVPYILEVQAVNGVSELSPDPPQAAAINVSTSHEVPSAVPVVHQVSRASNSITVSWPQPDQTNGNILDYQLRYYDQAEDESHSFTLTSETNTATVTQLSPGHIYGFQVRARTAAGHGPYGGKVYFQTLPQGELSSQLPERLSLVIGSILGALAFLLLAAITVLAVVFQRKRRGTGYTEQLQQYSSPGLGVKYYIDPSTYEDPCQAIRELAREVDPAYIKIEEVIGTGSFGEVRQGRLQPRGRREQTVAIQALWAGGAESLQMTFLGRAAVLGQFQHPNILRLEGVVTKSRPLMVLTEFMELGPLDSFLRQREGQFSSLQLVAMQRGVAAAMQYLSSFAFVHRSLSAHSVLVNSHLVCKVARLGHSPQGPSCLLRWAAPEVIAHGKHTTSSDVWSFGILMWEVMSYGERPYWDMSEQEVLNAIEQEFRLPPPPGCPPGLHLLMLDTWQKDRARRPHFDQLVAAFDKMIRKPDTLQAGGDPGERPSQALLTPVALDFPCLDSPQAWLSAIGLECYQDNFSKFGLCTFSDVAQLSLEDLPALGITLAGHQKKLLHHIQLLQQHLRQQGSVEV
Nature of the assay: Selectivity interaction (KinomeScan (DiscoverX)) EUB0000607a EPHB6. To be noted: at 10 µM.

Assay [4] concerns the target MAP/microtubule affinity-regulating kinase 3 (Homo sapiens) (UniProt P27448). Nature of the assay: Selectivity interaction (ActivX KiNativ screen (kinase selectivity in THP-1 cell lysates)) EUB0000639a MARK3. The assay is classed as subcellular. To be noted: lysate, at 0.01 µM.
Assay [5] deals with Bromodomain-containing protein 4 (Homo sapiens, UniProt O60885). Nature of the assay: Selectivity interaction (Human bromodomain panel (DSF assay)) EUB0000233b BRD4. A general note: Differential scanning fluorimetry follows unfolding on heating by fluorescence.

Sequence of SRSF protein kinase 3 (Homo sapiens) (Q9UPE1 whole entry): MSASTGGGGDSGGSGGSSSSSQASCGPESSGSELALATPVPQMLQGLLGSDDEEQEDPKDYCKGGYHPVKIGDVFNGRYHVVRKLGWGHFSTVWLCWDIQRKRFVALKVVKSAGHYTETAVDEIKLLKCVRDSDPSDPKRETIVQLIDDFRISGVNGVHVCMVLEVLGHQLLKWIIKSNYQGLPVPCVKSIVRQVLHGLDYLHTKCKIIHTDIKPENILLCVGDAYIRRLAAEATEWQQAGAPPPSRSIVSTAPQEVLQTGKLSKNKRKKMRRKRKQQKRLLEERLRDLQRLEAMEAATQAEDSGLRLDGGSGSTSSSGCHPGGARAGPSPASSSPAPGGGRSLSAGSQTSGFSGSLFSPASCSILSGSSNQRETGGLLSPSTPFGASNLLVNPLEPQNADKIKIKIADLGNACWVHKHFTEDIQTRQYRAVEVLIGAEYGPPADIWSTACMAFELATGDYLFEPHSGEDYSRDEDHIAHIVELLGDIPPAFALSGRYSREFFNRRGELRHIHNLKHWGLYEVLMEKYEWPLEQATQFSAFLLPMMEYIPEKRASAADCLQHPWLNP
Sequence of MAP/microtubule affinity-regulating kinase 3 (Homo sapiens) (P27448 whole entry, looked up): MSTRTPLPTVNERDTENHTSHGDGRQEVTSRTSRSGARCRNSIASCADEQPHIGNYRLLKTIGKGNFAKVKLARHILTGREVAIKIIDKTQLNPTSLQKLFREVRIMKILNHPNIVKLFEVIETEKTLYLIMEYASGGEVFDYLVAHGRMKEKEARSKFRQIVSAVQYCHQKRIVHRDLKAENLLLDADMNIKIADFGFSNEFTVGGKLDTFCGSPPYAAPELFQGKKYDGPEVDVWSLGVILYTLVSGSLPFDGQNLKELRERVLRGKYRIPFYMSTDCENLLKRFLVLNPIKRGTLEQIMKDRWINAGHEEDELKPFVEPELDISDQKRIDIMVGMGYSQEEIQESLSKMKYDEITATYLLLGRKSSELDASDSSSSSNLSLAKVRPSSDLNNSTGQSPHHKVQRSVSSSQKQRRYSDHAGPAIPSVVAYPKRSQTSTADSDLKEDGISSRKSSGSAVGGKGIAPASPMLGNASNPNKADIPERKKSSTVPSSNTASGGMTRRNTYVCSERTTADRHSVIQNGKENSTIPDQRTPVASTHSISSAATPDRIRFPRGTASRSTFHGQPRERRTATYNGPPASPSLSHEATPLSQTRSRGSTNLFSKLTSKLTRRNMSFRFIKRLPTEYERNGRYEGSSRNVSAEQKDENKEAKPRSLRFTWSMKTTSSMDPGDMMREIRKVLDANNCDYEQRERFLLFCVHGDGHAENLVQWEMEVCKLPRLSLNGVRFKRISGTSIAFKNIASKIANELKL

With `COc1cc(Nc2nc(C)cc(-c3cnn4nc(OC)ccc34)n2)cc(C(F)(F)F)c1`, the % of control in assay [1] stood at 65%.
For the compound `C=CC(=O)Nc1cc(-n2c(=O)ccc3cnc4ccc(-c5ccc(NS(C)(=O)=O)cc5)cc4c32)ccc1C`, the % of control in assay [2] (at 1 µM) and in assay [2] (at 10 µM) was 100% each time.
The compound `CNC(=O)Nc1ccc(-c2nc(N3CC4CCC(C3)O4)c3cnn(C4CCC5(CC4)OCCO5)c3n2)cc1` showed a % of control in assay [3] of 83%.
On to `CC[C@@H]1[C@H](F)C(=O)N[C@@H]1COc1nccc2cc(C(N)=O)c(OC)cc12` [ZIMLOVISERTIB], for which the % of inhibition in assay [4] was 10.4%.
For the compound `CN(C)CCCOc1ccc(-c2cc(NCCCn3cccn3)nc(S(C)(=O)=O)n2)cc1`, the dTM in assay [5] is less than 2 K.

Values taken from ChEMBL document CHEMBL5465560, “Selectivity Literature for EUbOPEN Chemogenomic Library” (2024).
